{"source": "ChEMBL document CHEMBL1782019", "about": "“Pyridones as glucokinase activators: identification of a unique metabolic liability of the 4-sulfonyl-2-pyridone heterocycle” (Bioorg Med Chem Lett, 2009)", "key": {"[1]": {"test": "Half life in human liver microsome at 1 uM by LC/MS/MS analysis", "assay_type": "ADME", "conditions": "liver microsomes"}, "[2]": {"test": "Hepatic clearance in rat liver microsome at 1 uM by LC/MS/MS analysis", "assay_type": "ADME", "conditions": "liver microsomes"}, "[3]": {"test": "Half life in rat liver microsome at 1 uM by LC/MS/MS analysis", "assay_type": "ADME", "conditions": "liver microsomes"}, "[4]": {"test": "Bioavailability in Sprague-Dawley rat at 0.5 mg/kg, iv and 5 mg/kg, po", "assay_type": "ADME, organism-based", "conditions": "in vivo"}, "[5]": {"test": "Half life in Sprague-Dawley rat at 0.5 mg/kg, iv and 5 mg/kg, po", "assay_type": "ADME, organism-based", "conditions": "in vivo"}, "[6]": {"test": "Clearance in Sprague-Dawley rat at 0.5 mg/kg, iv and 5 mg/kg, po", "assay_type": "ADME, organism-based", "conditions": "in vivo"}, "[7]": {"test": "Fraction unbound in Sprague-Dawley rat at 0.5 mg/kg, iv and 5 mg/kg, po", "assay_type": "ADME, organism-based", "conditions": "plasma"}, "[8]": {"test": "Hepatic clearance in human liver microsome at 1 uM by LC/MS/MS analysis", "assay_type": "ADME", "conditions": "liver microsomes"}, "Hexokinase-4": {"biological_target": "T1, Hexokinase-4 (Homo sapiens, UniProt P35557)", "T1 sequence (P35557 whole entry)": "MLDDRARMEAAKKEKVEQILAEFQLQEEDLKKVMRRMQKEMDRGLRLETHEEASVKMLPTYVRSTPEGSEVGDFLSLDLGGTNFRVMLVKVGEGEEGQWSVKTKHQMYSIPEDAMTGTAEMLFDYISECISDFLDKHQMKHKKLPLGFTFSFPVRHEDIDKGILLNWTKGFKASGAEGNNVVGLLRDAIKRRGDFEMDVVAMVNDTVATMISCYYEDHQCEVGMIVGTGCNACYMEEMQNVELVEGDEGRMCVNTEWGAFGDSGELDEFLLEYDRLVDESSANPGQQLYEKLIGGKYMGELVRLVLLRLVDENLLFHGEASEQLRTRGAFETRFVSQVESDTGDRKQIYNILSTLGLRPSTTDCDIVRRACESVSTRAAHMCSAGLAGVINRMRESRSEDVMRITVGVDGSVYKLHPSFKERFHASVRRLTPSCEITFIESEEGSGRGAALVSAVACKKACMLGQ", "description": "Activation of human recombinant glucokinase using 6.5 mM glucose by spectrophotometry"}}}
{"smiles": "Cc1cnc(NC(=O)[C@H](CC2CCCC2)n2ccc(S(C)(=O)=O)cc2=O)cn1", "values": [{"measurement": "half-life at 1 µM", "setting": "[1]", "value": "> 120", "unit": "min"}, {"measurement": "CLhep predicted at 1 µM", "setting": "[2]", "value": 31, "unit": "mL/min/kg"}, {"measurement": "half-life at 1 µM", "setting": "[3]", "value": 56, "unit": "min"}, {"measurement": "bioavailability", "setting": "[4]", "value": 2, "unit": "%"}, {"measurement": "half-life", "setting": "[5]", "value": 12, "unit": "min"}, {"measurement": "clearance", "setting": "[6]", "value": 337, "unit": "mL/min/kg"}, {"measurement": "fraction unbound", "setting": "[7]", "value": 0.35}, {"measurement": "CLhep predicted at 1 µM", "setting": "[8]", "value": "< 5", "unit": "mL/min/kg"}, {"measurement": "EC50", "setting": "Hexokinase-4", "value": 3500, "unit": "nM"}]}
{"smiles": "Cc1ccc(NC(=O)[C@H](CC(C)C)n2ccc(S(=O)(=O)C(C)C)cc2=O)nc1", "values": [{"measurement": "EC50", "setting": "Hexokinase-4", "value": 510, "unit": "nM"}]}
{"smiles": "Cc1csc(NC(=O)c2cc(Sc3nccn3C)c(F)cc2N)n1", "values": [{"measurement": "EC50", "setting": "Hexokinase-4", "value": 620, "unit": "nM"}]}
{"smiles": "Cc1ccc(NC(=O)[C@H](CC2CCCC2)n2ccc(S(C)(=O)=O)cc2=O)nc1", "values": [{"measurement": "half-life at 1 µM", "setting": "[1]", "value": "> 120", "unit": "min"}, {"measurement": "CLhep predicted at 1 µM", "setting": "[2]", "value": 58, "unit": "mL/min/kg"}, {"measurement": "half-life at 1 µM", "setting": "[3]", "value": 9, "unit": "min"}, {"measurement": "CLhep predicted at 1 µM", "setting": "[8]", "value": 5, "unit": "mL/min/kg"}, {"measurement": "EC50", "setting": "Hexokinase-4", "value": 560, "unit": "nM"}]}
{"smiles": "CCS(=O)(=O)c1ccn([C@@H](CC2CCCC2)C(=O)Nc2ccc(C)cn2)c(=O)c1", "values": [{"measurement": "EC50", "setting": "Hexokinase-4", "value": 500, "unit": "nM"}]}
{"smiles": "Cc1ccc(NC(=O)[C@H](CC2CCCC2)n2ccc(S(=O)(=O)C(C)C)cc2=O)nc1", "values": [{"measurement": "EC50", "setting": "Hexokinase-4", "value": 230, "unit": "nM"}]}
{"smiles": "Cc1ccc(NC(=O)[C@H](CC2CCCC2)n2ccc(S(=O)(=O)C3CC3)cc2=O)nc1", "values": [{"measurement": "EC50", "setting": "Hexokinase-4", "value": 110, "unit": "nM"}]}
{"smiles": "Cc1ccc(NC(=O)[C@H](CC2CCCC2)n2ccc(S(=O)(=O)C3CCC3)cc2=O)nc1", "values": [{"measurement": "EC50", "setting": "Hexokinase-4", "value": 60, "unit": "nM"}]}
{"smiles": "Cc1ccc(NC(=O)[C@H](CC2CCCC2)n2cc(Cl)c(S(C)(=O)=O)cc2=O)nc1", "values": [{"measurement": "EC50", "setting": "Hexokinase-4", "value": 480, "unit": "nM"}]}
{"smiles": "Cc1ccc(NC(=O)[C@H](CC2CCCC2)n2cc(C)c(S(C)(=O)=O)cc2=O)nc1", "values": [{"measurement": "EC50", "setting": "Hexokinase-4", "value": 440, "unit": "nM"}]}
{"smiles": "Cc1ccc(NC(=O)[C@H](CC2CCCC2)n2cc(Cl)c(S(=O)(=O)C(C)C)cc2=O)nc1", "values": [{"measurement": "EC50", "setting": "Hexokinase-4", "value": 260, "unit": "nM"}]}
{"smiles": "Cc1ccc(NC(=O)[C@H](CC2CCCC2)n2cc(C)c(S(=O)(=O)C(C)C)cc2=O)nc1", "values": [{"measurement": "EC50", "setting": "Hexokinase-4", "value": 160, "unit": "nM"}]}
{"smiles": "Cc1ccc(NC(=O)[C@H](CC2CCCC2)n2ccc(S(=O)(=O)C(C)C)c(Cl)c2=O)nc1", "values": [{"measurement": "EC50", "setting": "Hexokinase-4", "value": 70, "unit": "nM"}]}
{"smiles": "Cc1ccc(NC(=O)[C@H](CC2CCC2)n2ccc(S(=O)(=O)C(C)C)cc2=O)nc1", "values": [{"measurement": "EC50", "setting": "Hexokinase-4", "value": 670, "unit": "nM"}]}
{"smiles": "Cc1ccc(NC(=O)[C@H](CC2CCCCC2)n2ccc(S(=O)(=O)C(C)C)cc2=O)nc1", "values": [{"measurement": "EC50", "setting": "Hexokinase-4", "value": 240, "unit": "nM"}]}
{"smiles": "Cc1ccc(NC(=O)[C@H](CC2CCC(F)(F)CC2)n2ccc(S(=O)(=O)C(C)C)cc2=O)nc1", "values": [{"measurement": "half-life at 1 µM", "setting": "[1]", "value": 73, "unit": "min"}, {"measurement": "CLhep predicted at 1 µM", "setting": "[2]", "value": 36, "unit": "mL/min/kg"}, {"measurement": "half-life at 1 µM", "setting": "[3]", "value": 42, "unit": "min"}, {"measurement": "CLhep predicted at 1 µM", "setting": "[8]", "value": 8, "unit": "mL/min/kg"}, {"measurement": "EC50", "setting": "Hexokinase-4", "value": 160, "unit": "nM"}]}
{"smiles": "CCS(=O)(=O)c1ccn([C@@H](CC2CCOCC2)C(=O)Nc2ccc(C)cn2)c(=O)c1", "values": [{"measurement": "half-life at 1 µM", "setting": "[1]", "value": "> 120", "unit": "min"}, {"measurement": "CLhep predicted at 1 µM", "setting": "[2]", "value": "< 18", "unit": "mL/min/kg"}, {"measurement": "half-life at 1 µM", "setting": "[3]", "value": "> 120", "unit": "min"}, {"measurement": "CLhep predicted at 1 µM", "setting": "[8]", "value": "< 5", "unit": "mL/min/kg"}, {"measurement": "EC50", "setting": "Hexokinase-4", "value": 1500, "unit": "nM"}]}
{"smiles": "Cc1ccc(NC(=O)[C@H](Cc2ccccc2)n2ccc(S(=O)(=O)C(C)C)cc2=O)nc1", "values": [{"measurement": "EC50", "setting": "Hexokinase-4", "value": 3300, "unit": "nM"}]}
{"smiles": "CC(C)S(=O)(=O)c1ccn([C@@H](CC2CCCC2)C(=O)Nc2ccccn2)c(=O)c1", "values": [{"measurement": "EC50", "setting": "Hexokinase-4", "value": 600, "unit": "nM"}]}
{"smiles": "CC(C)S(=O)(=O)c1ccn([C@@H](CC2CCCC2)C(=O)Nc2ccc(C(F)(F)F)cn2)c(=O)c1", "values": [{"measurement": "EC50", "setting": "Hexokinase-4", "value": 330, "unit": "nM"}]}
{"smiles": "CS(=O)(=O)c1cc(=O)n([C@@H](CC2CCCC2)C(=O)Nc2ccc(Cl)cn2)cc1Cl", "values": [{"measurement": "EC50", "setting": "Hexokinase-4", "value": 140, "unit": "nM"}]}
{"smiles": "O=C(Nc1cnccn1)[C@H](CC1CCCC1)n1ccc(S(=O)(=O)C2CC2)cc1=O", "values": [{"measurement": "EC50", "setting": "Hexokinase-4", "value": 1300, "unit": "nM"}]}
{"smiles": "O=C(Nc1cnccn1)[C@H](CC1CCCC1)n1ccc(S(=O)(=O)C2CCC2)cc1=O", "values": [{"measurement": "EC50", "setting": "Hexokinase-4", "value": 590, "unit": "nM"}]}
{"smiles": "Cc1cnc(NC(=O)[C@H](CC2CCCC2)n2cc(Cl)c(S(=O)(=O)C(C)C)cc2=O)cn1", "values": [{"measurement": "EC50", "setting": "Hexokinase-4", "value": 700, "unit": "nM"}]}
{"smiles": "CC(C)S(=O)(=O)c1ccn([C@@H](CC2CCCC2)C(=O)Nc2cc[nH]n2)c(=O)c1", "values": [{"measurement": "EC50", "setting": "Hexokinase-4", "value": 720, "unit": "nM"}]}
{"smiles": "CC(C)S(=O)(=O)c1ccn([C@@H](CC2CCCC2)C(=O)Nc2ccn(C)n2)c(=O)c1", "values": [{"measurement": "half-life at 1 µM", "setting": "[1]", "value": 93, "unit": "min"}, {"measurement": "CLhep predicted at 1 µM", "setting": "[2]", "value": 58, "unit": "mL/min/kg"}, {"measurement": "half-life at 1 µM", "setting": "[3]", "value": 8, "unit": "min"}, {"measurement": "bioavailability", "setting": "[4]", "value": 8, "unit": "%"}, {"measurement": "half-life", "setting": "[5]", "value": 12, "unit": "min"}, {"measurement": "clearance", "setting": "[6]", "value": 164, "unit": "mL/min/kg"}, {"measurement": "fraction unbound", "setting": "[7]", "value": 0.59}, {"measurement": "CLhep predicted at 1 µM", "setting": "[8]", "value": 10, "unit": "mL/min/kg"}, {"measurement": "EC50", "setting": "Hexokinase-4", "value": 910, "unit": "nM"}]}
{"smiles": "Cn1ccc(NC(=O)[C@H](CC2CCCC2)n2ccc(S(=O)(=O)C3CC3)cc2=O)n1", "values": [{"measurement": "EC50", "setting": "Hexokinase-4", "value": 1500, "unit": "nM"}]}
{"smiles": "Cn1ccc(NC(=O)[C@H](CC2CCCC2)n2ccc(S(=O)(=O)C3CCC3)cc2=O)n1", "values": [{"measurement": "EC50", "setting": "Hexokinase-4", "value": 260, "unit": "nM"}]}
{"smiles": "CC(C)S(=O)(=O)c1ccn([C@@H](CC2CCCC2)C(=O)Nc2nccs2)c(=O)c1", "values": [{"measurement": "EC50", "setting": "Hexokinase-4", "value": 1300, "unit": "nM"}]}
